Reference: patent US7456216B2, “Methods for the preparation and formulation of l-carnitine valproate salts” (BioLink Life Sciences, Inc., priority 2007, dated 2008)

Legend:
deacetylase = conditions: dose between 20 and 40 mg/kg; patients with cervical cancer; cited from earlier work
[1] = Storage in ambient atmosphere, gross weight monitored over 6 days (hygroscopicity); assay type: physicochemical; conditions: for Conclusion & Observations (hygroscopicity): 6 days in ambient atmosphere; for Net weight, final / Change of net weight, final vs initial: after 6 days in ambient atmosphere; for Net weight, initial: weighed portion before exposure to ambient atmosphere
Description: The effects of storage of the L-carnitine valproate salts of Examples 1 and 2 in ambient atmospheres were monitored for 6 days. For comparison, L-carnitine (Sigma Aldrich Chemical Co.), sodium valproate (Sigma Aldrich Chemical Co.), and divalproex sodium were also monitored in the same manner. The experiment was performed by weighing portions of each compound into a tared glass container and periodically monitoring the gross weight of the compound+container over a 6 day period.

[2] = cited from earlier work
[3] = conventional L-carnitine; cited from earlier work
[4] = Solubility in water or aqueous solutions; assay type: physicochemical
[5] = Storage in a closed and sealed container (stability, odor); assay type: physicochemical; conditions: for Odor detected during storage: trimethylamine odor indicates degradation
Source text: L-Carnitine magnesium salts of the present invention are stable when stored in a closed and sealed container. […] Both L-carnitine calcium valproate and L-carnitine magnesium valproate are converted to the corresponding hydrates by exposure to water vapor in the atmosphere. Each hydrate has a characteristic melting point.

| Molecule | Conclusion & Observations (hygroscopicity) [1] | Net weight, final [1] [mg] | Net weight, initial [1] [mg] | also measured |
| --- | --- | --- | --- | --- |
| magnesium 2-propylvalerate [magnesium valproate] |  |  |  | Deacetylase activity in tumor tissues (deacetylase): inhibits deacetylase activity and hyperacetylates histones in tumor tissues |
| CCCC(CCC)C(=O)[O-].[Na+] [Sodium valproate, reference compound] | very hygroscopic. |  |  |  |
| CCCC(CCC)C(=O)O [Divalproex sodium, reference compound] | Mass of the material did not change. Material is not hygroscopic. | 100 | 100 |  |
| CCCC(CCC)C(=O)O [Valproic acid, 2-propylpentanoic acid] |  |  |  | Solubility in water [2]: very slightly soluble in water |
| C[N+](C)(C)C[C@H](O)CC(=O)[O-] [L-Carnitine, L-(−)-Carnitine] | Material is hygroscopic. | >227 | 208 | Bioavailability of L-carnitine [3]: 15-20 % of the administered dose |
| L-carnitine magnesium valproate | Material absorbed water and was converted to a hydrate, which is further | 163 | 142 | Change of net weight, final vs initial [1]: (+15%); Solubility in water or aqueous solutions [4]: readily dissolved in water or aqueous solutions; Stability during storage [5]: stable; Odor detected during storage [5]: a slight odor of trimethylamine is detected |
| L-carnitine calcium valproate | Appearance and mobility of the material did not change. Material absorbed water | 202 | 194 | Change of net weight, final vs initial [1]: (+5%); Stability during storage [5]: stable; Odor detected during storage [5]: no odor is detected |
